From patent US11345681B1, “Inhibitors of fibroblast growth factor receptor kinases” (Kinnate Biopharma Inc., priority 2020, dated 2022)

Molecular target: Wild type FGFR2 (Homo sapiens (Human), UniProt P21802)
Test: FGFR2 kinase assay (fluorescence-based microfluidic mobility shift assay)
Assay type: biochemical
Conditions: wild type FGFR2 0.06 nM, 100 μM ATP, 80 minutes at room temperature

Wild type FGFR2, sequence (P21802 22-821): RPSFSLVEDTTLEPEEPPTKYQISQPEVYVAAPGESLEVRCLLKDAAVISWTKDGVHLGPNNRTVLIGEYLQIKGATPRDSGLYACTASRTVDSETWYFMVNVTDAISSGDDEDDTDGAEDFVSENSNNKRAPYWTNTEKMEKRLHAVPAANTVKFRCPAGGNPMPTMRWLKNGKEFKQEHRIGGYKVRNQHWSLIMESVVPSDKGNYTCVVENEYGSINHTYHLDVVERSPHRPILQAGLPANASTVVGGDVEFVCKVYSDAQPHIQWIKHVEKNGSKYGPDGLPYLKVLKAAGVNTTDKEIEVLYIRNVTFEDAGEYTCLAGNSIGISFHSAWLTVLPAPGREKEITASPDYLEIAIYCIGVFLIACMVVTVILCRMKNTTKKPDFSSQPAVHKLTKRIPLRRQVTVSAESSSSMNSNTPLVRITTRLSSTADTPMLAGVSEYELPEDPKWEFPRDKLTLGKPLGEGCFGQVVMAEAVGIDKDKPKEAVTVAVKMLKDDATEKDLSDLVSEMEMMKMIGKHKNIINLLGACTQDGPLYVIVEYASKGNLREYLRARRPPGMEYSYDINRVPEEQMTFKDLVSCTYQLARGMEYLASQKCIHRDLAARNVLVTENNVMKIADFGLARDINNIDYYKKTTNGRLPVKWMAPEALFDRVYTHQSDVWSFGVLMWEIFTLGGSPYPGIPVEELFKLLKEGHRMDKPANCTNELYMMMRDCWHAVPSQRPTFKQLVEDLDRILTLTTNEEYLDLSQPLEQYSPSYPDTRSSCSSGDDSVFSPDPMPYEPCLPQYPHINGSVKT

IC50 (class symbols) [nM] | IC50 (given as numeric bound) [nM] | Structure (SMILES)
≤ 100 |  | C=CC(=O)N1C[C@@H](n2nc(C#Cc3cc4ncn([C@@H]5CC5(F)F)c4cc3Cl)c(C(N)=O)c2NC)C[C@@H]1COC (single isomer, unassigned) [Example 279]
≤ 100 |  | C=CC(=O)N1C[C@@H](n2nc(C#Cc3cc4c(cc3Cl)ncn4[C@@H]3CC3(F)F)c(C(N)=O)c2NC)C[C@@H]1COC (single isomer, unassigned) [Example 288]
≤ 100 |  | C=CC(=O)N1C[C@@H](n2nc(C#Cc3c(F)cc4c(ncn4CC(F)(F)F)c3F)c(C(N)=O)c2NC)CC1COC (stereo in doubt) [Example 34, 1-((3S,5S)-1-acryloyl-5-(methoxymethyl)pyrrolidin-3-yl)-3-((4,6-difluoro-1-(2,2,2-trifluoroethyl)-1H-benzo[d]imidazol-5-yl)ethynyl)-5-(methylamino)-1H-pyrazole-4-carboxamide]
100 to 1000 |  | C=CC(=O)N1C[C@@H](n2nc(C#Cc3ccc4nn(C)cc4c3)c(C(N)=O)c2NC)C[C@@H]1COC [Example 9, 1-((3S,5R)-1-acryloyl-5-(methoxymethyl)pyrrolidin-3-yl)-3-((2-methyl-2H-indazol-5-yl)ethynyl)-5-(methylamino)-1H-pyrazole-4-carboxamide]
≤ 100 |  | C=CC(=O)N1C[C@@H](n2nc(C#Cc3ccc4c(cnn4CC)c3)c(C(N)=O)c2NC)C[C@@H]1COC [Example 14]

Continued, molecule first:

Structure (SMILES) | IC50 (class symbols) [nM] | IC50 (given as numeric bound) [nM]
C=CC(=O)N1C[C@@H](n2nc(C#Cc3cc4ncn([C@H]5CC5(F)F)c4cc3Cl)c(C(N)=O)c2NC)C[C@@H]1COC (single isomer, unassigned) [Example 280] | ≤ 100 | 
C=CC(=O)N1C[C@@H](n2nc(C#Cc3cc4c(cc3Cl)ncn4[C@H]3CC3(F)F)c(C(N)=O)c2NC)C[C@@H]1COC (single isomer, unassigned) [Example 289] |  | > 500
C=CC(=O)N1C[C@@H](n2nc(C#Cc3ccc4cnoc4c3)c(C(N)=O)c2NC)CC1COC (stereo in doubt) [Example 26, 1-((3S,5S)-1-acryloyl-5-(methoxymethyl)pyrrolidin-3-yl)-3-(benzo[d]isoxazol-6-ylethynyl)-5-(methylamino)-1H-pyrazole-4-carboxamide] | 100 to 1000 | 
C=CC(=O)N1C[C@@H](n2nc(C#Cc3c(F)cc4c(ncn4C4CC4)c3F)c(C(N)=O)c2NC)CC1C (stereo in doubt) [Example 159, 3-[2-(1-Cyclopropyl-4,6-difluoro-1,3-benzodiazol-5-yl)ethynyl]-1-[(3S,5R)-5-methyl-1-(prop-2-enoyl)pyrrolidin-3-yl]-5-(methylamino)pyrazole-4-carboxamide] | ≤ 100 | 
C#CC(=O)N1CC[C@H](n2nc(C#Cc3cc4ncn(C5CC5)c4cc3F)c(C(N)=O)c2NC)C1 (stereo in doubt) [Example 188, 3-[2-(1-Cyclopropyl-6-fluoro-1,3-benzodiazol-5-yl)ethynyl]-5 (methylamino)-1-[1-(prop-2-ynoyl)pyrrolidin-3-yl]pyrazole-4-carboxamide] | ≤ 100 | 
C=CC(=O)N1CC[C@H](n2nc(C#Cc3ccc4nc(C)[nH]c4c3)c(C(N)=O)c2NC)C1 [Example 2, (S)-1-(1-acryloylpyrrolidin-3-yl)-3-((2-methyl-1H-benzo[d]imidazol-6-yl)ethynyl)-5-(methylamino)-1H-pyrazole-4-carboxamide] | ≤ 100 | 
C=CC(=O)N1C[C@@H](n2nc(C#Cc3ccc4c(c3)nc(C)n4CC)c(C(N)=O)c2NC)C[C@@H]1COC [Example 3, 3-[2-(1-ethyl-2-methyl-1,3-benzodiazol-5-yl)ethynyl]-1-[(3S,5R)-5-(methoxymethyl)-1-(prop-2-enoyl)pyrrolidin-3-yl]-5-(methylamino)pyrazole-4-carboxamide] | ≤ 100 | 
C=CC(=O)N1C[C@@H](n2nc(C#Cc3ccc4c(cnn4C)c3)c(C(N)=O)c2NC)C[C@@H]1COC [Example 8] | ≤ 100 | 
C=CC(=O)N1C[C@@H](n2nc(C#Cc3ccc4c(c3)nc(C(F)(F)F)n4C)c(C(N)=O)c2NC)C[C@@H]1COC [Example 10] | ≤ 100 | 
C=CC(=O)N1C[C@@H](n2nc(C#Cc3c(F)cc4c(ncn4C)c3F)c(C(N)=O)c2NC)C[C@@H]1COC [Example 11] | ≤ 100 | 
